In patent publication US6716880B2, “Compounds for the treatment of estrogen-dependent illnesses and methods for making and using the same” (Duquesne University of the Holy Ghost, priority 1998, dated 2004):

Assays:
[1] = biological target: T1, estrone sulfatase in MDA-MB-231 breast cancer cells (Homo sapiens, UniProt P08842); experiment: Intact breast cancer cell estrone sulfatase assay; format: cell-based; details: intact MDA-MB-231 cells, 18 h incubation
T1 construct: using intact monolayers of MDA-MB-231 breast cancer cells; endogenous in cells; host or cells: MDA-MB-231 breast cancer cells
T1 sequence (P08842 22-583): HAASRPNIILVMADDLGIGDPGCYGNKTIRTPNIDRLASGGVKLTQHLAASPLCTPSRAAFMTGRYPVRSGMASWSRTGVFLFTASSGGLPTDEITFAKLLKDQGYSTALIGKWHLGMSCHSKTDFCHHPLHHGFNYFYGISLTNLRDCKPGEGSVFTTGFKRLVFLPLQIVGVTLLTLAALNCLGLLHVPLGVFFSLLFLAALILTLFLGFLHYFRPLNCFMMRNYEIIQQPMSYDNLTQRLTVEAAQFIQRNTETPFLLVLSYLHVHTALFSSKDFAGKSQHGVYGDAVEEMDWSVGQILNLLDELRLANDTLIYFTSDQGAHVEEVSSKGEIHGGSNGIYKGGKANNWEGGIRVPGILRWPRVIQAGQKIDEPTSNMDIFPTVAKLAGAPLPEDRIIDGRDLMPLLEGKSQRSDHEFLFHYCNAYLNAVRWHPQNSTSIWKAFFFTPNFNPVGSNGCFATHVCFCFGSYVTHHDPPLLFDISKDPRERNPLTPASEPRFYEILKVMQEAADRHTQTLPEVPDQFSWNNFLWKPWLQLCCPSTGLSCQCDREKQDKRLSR
Method: The ability of the compound prepared according to Example 1 to block hydrolysis of estrone sulfate was examined using intact monolayers of MDA-MB-231 breast cancer cells.
MDA-MB-231 cells were plated into 6-well dishes at approximately 1×10^6 cells/well in growth medium and incubated at 37° C. overnight to facilitate adherence to the plates. The growth medium contained 0.2% (v/v) sodium bicarbonate, 5% heat-inactivated fetal-calf serum, […] gentamicin, and 1% (v/v) antibiotic/antimycotic. Following incubation, growth medium was removed and replaced with growth medium containing ^3H-estrone sulfate (100,000 dpm/ml), with or without the compound of Example 1 (10 μM). Cells were incubated for 18 h, then plates were cooled for 15 min. Medium from each well (500 μL) was aliquoted into 16×100 mm tubes. Three mls of toluene were added to each tube for extraction of unconjugated steroids. The tubes were vortexed for 1 min and then centrifuged at 2500×g for 5 min to separate the aqueous and organic phases. One mL of the organic phase (containing radiolabeled unconjugated steroids) was transferred to scintillation vials and 5 ml scintillation cocktail was added. Total radioactivity was counted using a Packard Tri-carb scintillation counter at 50% efficiency for ^3H. All extractions were performed in duplicate and all treatments were run in triplicate. […]

estrone sulfatase = biological target: T2, estrone sulfatase (Rattus norvegicus, UniProt P15589); experiment: Rat liver microsome sulfatase assay (Lineweaver-Burk); format: biochemical; details: rat liver microsomes
T2 construct: using rat liver microcosm as a source of sulfatase; from tissue; host or cells: rat liver microsomal fraction (juvenile female Sprague-Dawley rats)
T2 sequence (P15589 20-577): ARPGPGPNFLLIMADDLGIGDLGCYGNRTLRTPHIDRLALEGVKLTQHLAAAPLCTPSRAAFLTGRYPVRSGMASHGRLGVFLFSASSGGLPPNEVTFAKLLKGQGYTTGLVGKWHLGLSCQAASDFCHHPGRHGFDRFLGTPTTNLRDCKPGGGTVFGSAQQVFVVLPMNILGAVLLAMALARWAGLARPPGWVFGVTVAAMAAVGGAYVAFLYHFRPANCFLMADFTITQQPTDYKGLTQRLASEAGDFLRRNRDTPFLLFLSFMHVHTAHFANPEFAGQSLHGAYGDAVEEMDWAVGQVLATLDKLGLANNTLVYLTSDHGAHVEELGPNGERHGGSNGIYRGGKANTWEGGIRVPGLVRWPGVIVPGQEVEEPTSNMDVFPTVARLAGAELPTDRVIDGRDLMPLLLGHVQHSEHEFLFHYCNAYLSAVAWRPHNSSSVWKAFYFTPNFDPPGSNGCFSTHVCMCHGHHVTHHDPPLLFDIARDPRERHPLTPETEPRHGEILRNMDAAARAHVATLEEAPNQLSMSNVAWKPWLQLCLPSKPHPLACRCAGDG
Method: Livers, obtained from juvenile female Sprague-Dawley rats, were minced with scissors in ice-cold 0.25M Tris-sucrose buffer (1:2 w:v) and homogenized with a Tissue Tearor using three 30 sec bursts. The nuclear fraction was pelleted by centrifugation at 1500×g for 15 min at 4° C. The supernatant was decanted and centrifuged at 10,000×g for 30 min at 4° C. to pellet the mitochondrial fraction. The resulting supernatant was removed and centrifuged at 100,000×g to yield the microsomal fraction. The microsomal pellet was resuspended in 50 mM Tris-HCl buffer (1:5 w:v) and protein from the microsomal suspension was determined by using the BCA assay.
^3H-estrone sulfate (53 Ci/mmol) was diluted in 50 mM Tris-HCl buffer and 50 μl (140,000 dpm) of the solution were added to all assay tubes. Radioinert estrone sulfate was dissolved in ethanol and then diluted into 50 mM Tris-HCl buffer. To achieve final concentrations of estrone sulfate, 100 μl of desired concentrations were added to the assay tubes. Compounds prepared according to Example 1 were dissolved in ethanol and then diluted in 50 mM Tris-HCl buffer. […] Product formation for samples containing an inhibitor was compared to that of the control samples, and data for Km and Ki were assessed through Michaelis Menten and Lineweaver-Burk calculations.

- inhibition at 10 µM [1]: ~50%
- Ki (estrone sulfatase; double reciprocal plot, fixed inhibitor concentration 10 μM): ~17 µM
- type of inhibition (estrone sulfatase; maximum velocity unchanged, Km increased): competitive inhibitor
SMILES: CC/C(=C(/c1ccc(OCCN(C)C)cc1)c1ccc(OS(N)(=O)=O)cc1)c1ccccc1 [tamoxifen sulfamate, (Z)-4-Hydroxytamoxifen Sulfamate]
